The values that follow are results of earlier work, collected in PubChem BioAssay AID1259409 (Chemical Carcinogenesis Research Information System (CCRIS), 2018).

Each structure is given as a SMILES string. “And” between values parts separate entries of the source, which are not always exact repeats. Equal values may be shown once.

For the data set, the system named is rodent chemically induced tumor inhibition, incidence and multiplicity. Nature of the data set: CCRIS tumor inhibitor studies. The note with it: Route [Inhibitor]: ORAL.

On to `NC(=O)c1cccnc1`, for which the “tumour outcome (control, treated, inhibition, significance)” value runs as follows: (Carcinogen: 3'-METHYL-4-DIMETHYLAMINOAZOBENZENE, 55-80-1, Dose [Inhibitor]: 0.29% IN DIET DAILY FOR 4 WK STARTING 4 WK AFTER THE START OF CARCINOGEN TREATMENT (STUDY DURATION: 20 WK), Species: RAT, Target Tissue: Type of Lesion: LIVER: TUMOR, Dose [Carcinogen]: 0.064% IN DIET DAILY FOR 4 WK THEN A 4 WK CARCINOGEN-FREE PERIOD FOLLOWED BY 0.048% FOR AN ADDITIONAL 4 WK, Promoter: NONE USED) 4/10 (40%), 10/11 (91%), -128%, not calculated; (Carcinogen: 3'-METHYL-4-DIMETHYLAMINOAZOBENZENE, 55-80-1, Dose [Inhibitor]: 0.29% IN DIET DAILY FOR 4 WK STARTING AFTER COMPLETION OF CARCINOGEN TREATMENT (STUDY DURATION: 20 WK), Species: RAT, Target Tissue: Type of Lesion: LIVER: TUMOR, Dose [Carcinogen]: 0.064% IN DIET DAILY FOR 4 WK, Promoter: NONE USED) 7/15 (47%), 0/17 (0%), 100%, not calculated; (Carcinogen: 3'-METHYL-4-DIMETHYLAMINOAZOBENZENE, 55-80-1, Dose [Inhibitor]: 0.29% IN DIET DAILY FOR 4 WK STARTING AFTER COMPLETION OF THE FIRST 4 WK OF CARCINOGEN TREATMENT (STUDY DURATION: 20 WK), Species: RAT, Target Tissue: Type of Lesion: LIVER: TUMOR, Dose [Carcinogen]: 0.064% IN DIET DAILY FOR 4 WK BEFORE AND ANOTHER 4 WK AFTER AGENT TREATMENT, Promoter: NONE USED) 7/15 (47%), 9/14 (64%), -36%, not calculated and 7/9 (78%), 6/9 (67%), 14%, not calculated; (Carcinogen: 7,12-DIMETHYLBENZ[A]ANTHRACENE, 57-97-6, Dose [Inhibitor]: 0.2% IN DRINKING WATER DAILY STARTING 4 WK BEFORE CARCINOGEN TREATMENT AND CONTINUING FOR DURATION OF THE STUDY (STUDY D, Species: MOUSE, Strain/Sex: 101/MALE, FEMALE, Target Tissue: Type of Lesion: SKIN: PAPILLOMA, Dose [Carcinogen]: 225 UG IN 0.15 ML ACETONE ONCE, Promoter: CROTON OIL, 8001-28-3) 17/19 (89%), 17/19 (89%), 0%, not calculated; (Carcinogen: N-NITROSOBIS(2-OXOPROPYL)AMINE, 60599-38-4, Dose [Inhibitor]: 0, 0.2% IN DRINKING WATER FOR 49 WK BEGINNING POST CARCINOGEN TREATMENT (STUDY DURATION: 52 WK), Species: HAMSTER, Strain/Sex: SYRIAN/FEMALE, Target Tissue: Type of Lesion: PANCREAS: ADENOCARCINOMA, Dose [Carcinogen]: 10 MG/KG 1/WK FOR 3 WK, Promoter: NONE USED) 18/30 (60%), 18/29 (62%), -3%, not significant; (Carcinogen: N-NITROSOBIS(2-OXOPROPYL)AMINE, 60599-38-4, Dose [Inhibitor]: 0, 0.2% IN DRINKING WATER FOR 49 WK POST CARCINOGEN TREATMENT (STUDY DURATION: 52 WK), Species: HAMSTER, Strain/Sex: SYRIAN GOLDEN/FEMALE, Target Tissue: Type of Lesion: KIDNEY: NEPHROBLASTOMA, Dose [Carcinogen]: 10 MG/KG BW 1/WK FOR FIRST 3 WK OF STUDY DURATION, Promoter: NONE) 2/30 (7%), 0/29 (0%), 100%, not significant. Also, the “tumour outcome (control, treated, inhibition, significance)” value is listed as 1/30 (3%), 1/29 (3%), 0%, not significant (Carcinogen: N-NITROSOBIS(2-OXOPROPYL)AMINE, 60599-38-4, Dose [Inhibitor]: 0, 0.2% IN DRINKING WATER FOR 49 WK POST CARCINOGEN TREATMENT (STUDY DURATION: 52 WK), Species: HAMSTER, Strain/Sex: SYRIAN GOLDEN/FEMALE, Target Tissue: Type of Lesion: KIDNEY: RENAL CELL CARCINOMA, Dose [Carcinogen]: 10 MG/KG BW 1/WK FOR FIRST 3 WK OF STUDY DURATION, Promoter: NONE); 1/30 (3%), 2/29 (7%), -133%, not significant (Carcinogen: N-NITROSOBIS(2-OXOPROPYL)AMINE, 60599-38-4, Dose [Inhibitor]: 0, 0.2% IN DRINKING WATER FOR 49 WK POST CARCINOGEN TREATMENT (STUDY DURATION: 52 WK), Species: HAMSTER, Strain/Sex: SYRIAN GOLDEN/FEMALE, Target Tissue: Type of Lesion: LIVER: CHOLANGIOCELLULAR ADENOMA, Dose [Carcinogen]: 10 MG/KG BW 1/WK FOR FIRST 3 WK OF STUDY DURATION, Promoter: NONE); 2/30 (7%), 4/29 (14%), -100%, not significant (Carcinogen: N-NITROSOBIS(2-OXOPROPYL)AMINE, 60599-38-4, Dose [Inhibitor]: 0, 0.2% IN DRINKING WATER FOR 49 WK POST CARCINOGEN TREATMENT (STUDY DURATION: 52 WK), Species: HAMSTER, Strain/Sex: SYRIAN GOLDEN/FEMALE, Target Tissue: Type of Lesion: LIVER: HEPATOCELLULAR ADENOMA, Dose [Carcinogen]: 10 MG/KG BW 1/WK FOR FIRST 3 WK OF STUDY DURATION, Promoter: NONE); 2/30 (7%), 1/29 (3%), 57%, not significant (Carcinogen: N-NITROSOBIS(2-OXOPROPYL)AMINE, 60599-38-4, Dose [Inhibitor]: 0, 0.2% IN DRINKING WATER FOR 49 WK POST CARCINOGEN TREATMENT (STUDY DURATION: 52 WK), Species: HAMSTER, Strain/Sex: SYRIAN GOLDEN/FEMALE, Target Tissue: Type of Lesion: LIVER: HEPATOCELLULAR CARCINOMA, Dose [Carcinogen]: 10 MG/KG BW 1/WK FOR FIRST 3 WK OF STUDY DURATION, Promoter: NONE); 11/30 (37%), 8/29 (28%), 24%, not significant (Carcinogen: N-NITROSOBIS(2-OXOPROPYL)AMINE, 60599-38-4, Dose [Inhibitor]: 0, 0.2% IN DRINKING WATER FOR 49 WK POST CARCINOGEN TREATMENT (STUDY DURATION: 52 WK), Species: HAMSTER, Strain/Sex: SYRIAN GOLDEN/FEMALE, Target Tissue: Type of Lesion: LUNG: ADENOCARCINOMA, Dose [Carcinogen]: 10 MG/KG BW 1/WK FOR FIRST 3 WK OF STUDY DURATION, Promoter: NONE); 15/30 (50%), 18/29 (62%), -24%, not significant (Carcinogen: N-NITROSOBIS(2-OXOPROPYL)AMINE, 60599-38-4, Dose [Inhibitor]: 0, 0.2% IN DRINKING WATER FOR 49 WK POST CARCINOGEN TREATMENT (STUDY DURATION: 52 WK), Species: HAMSTER, Strain/Sex: SYRIAN GOLDEN/FEMALE, Target Tissue: Type of Lesion: LUNG: ADENOMA, Dose [Carcinogen]: 10 MG/KG BW 1/WK FOR FIRST 3 WK OF STUDY DURATION, Promoter: NONE). The “tumour outcome (control, treated, inhibition, significance)” value is, setting by setting: (Carcinogen: N-NITROSOBIS(2-OXOPROPYL)AMINE, 60599-38-4, Dose [Inhibitor]: 0, 0.2% IN DRINKING WATER FOR 49 WK POST CARCINOGEN TREATMENT (STUDY DURATION: 52 WK), Species: HAMSTER, Strain/Sex: SYRIAN GOLDEN/FEMALE, Target Tissue: Type of Lesion: LUNG: SQUAMOUS CELL CARCINOMA, Dose [Carcinogen]: 10 MG/KG BW 1/WK FOR FIRST 3 WK OF STUDY DURATION, Promoter: NONE) 2/30 (7%), 0/29 (0%), 100%, not significant; (Carcinogen: N-NITROSOBIS(2-OXOPROPYL)AMINE, 60599-38-4, Dose [Inhibitor]: 0, 0.2% IN DRINKING WATER FOR 49 WK POST CARCINOGEN TREATMENT (STUDY DURATION: 52 WK), Species: HAMSTER, Strain/Sex: SYRIAN GOLDEN/FEMALE, Target Tissue: Type of Lesion: PANCREAS (DUCTAL): ADENOCARCINOMA, Dose [Carcinogen]: 10 MG/KG BW 1/WK FOR FIRST 3 WK OF STUDY DURATION, Promoter: NONE) 18/30 (60%), 18/29 (62%), -3%, not significant; (Carcinogen: N-NITROSOBIS(2-OXOPROPYL)AMINE, 60599-38-4, Dose [Inhibitor]: 0, 0.2% IN DRINKING WATER FOR 49 WK POST CARCINOGEN TREATMENT (STUDY DURATION: 52 WK), Species: HAMSTER, Strain/Sex: SYRIAN GOLDEN/FEMALE, Target Tissue: Type of Lesion: THYROID: ADENOMA, Dose [Carcinogen]: 10 MG/KG BW 1/WK FOR FIRST 3 WK OF STUDY DURATION, Promoter: NONE) 1/30 (3%), 0/29 (0%), 100%, not significant. For the same compound, the outcome reads like this: (Carcinogen: N-NITROSOBIS(2-OXOPROPYL)AMINE, 60599-38-4, Dose [Inhibitor]: 0, 0.2% IN DRINKING WATER FOR 49 WK POST CARCINOGEN TREATMENT (STUDY DURATION: 52 WK), Species: HAMSTER, Strain/Sex: SYRIAN GOLDEN/FEMALE, Target Tissue: Type of Lesion: KIDNEY: RENAL CELL ADENOMA, Dose [Carcinogen]: 10 MG/KG BW 1/WK FOR FIRST 3 WK OF STUDY DURATION, Promoter: NONE) 0/30 (0%), 1/29 (3%),-%, not significant; (Carcinogen: N-NITROSOBIS(2-OXOPROPYL)AMINE, 60599-38-4, Dose [Inhibitor]: 0, 0.2% IN DRINKING WATER FOR 49 WK POST CARCINOGEN TREATMENT (STUDY DURATION: 52 WK), Species: HAMSTER, Strain/Sex: SYRIAN GOLDEN/FEMALE, Target Tissue: Type of Lesion: LIVER: CHOLANGIOCELLULAR CARCINOMA, Dose [Carcinogen]: 10 MG/KG BW 1/WK FOR FIRST 3 WK OF STUDY DURATION, Promoter: NONE) 0/30 (0%), 5/29 (17%), -%, p<0.05; (Carcinogen: N-NITROSOBIS(2-OXOPROPYL)AMINE, 60599-38-4, Dose [Inhibitor]: 0, 0.2% IN DRINKING WATER FOR 49 WK POST CARCINOGEN TREATMENT (STUDY DURATION: 52 WK), Species: HAMSTER, Strain/Sex: SYRIAN GOLDEN/FEMALE, Target Tissue: Type of Lesion: LIVER: CYSTADENOMA, Dose [Carcinogen]: 10 MG/KG BW 1/WK FOR FIRST 3 WK OF STUDY DURATION, Promoter: NONE) 0/30 (0%), 0/29 (0%), 0%, not significant.
